Laboratory results published in patent publication US9163011B2, “Oxazine derivatives and their use in the treatment of disease” (NOVARTIS AG, priority 2011, dated 2015).

How the values were obtained:
Human BACE-1 = Human BACE-1 (Homo sapiens (Human), UniProt P56817); assay: Test 1: Inhibition of Human BACE-1; assay type: biochemical; conditions: recombinant BACE-1, pH 4.5, 1 hour preincubation
Method: Test 1: Inhibition of Human BACE-1
(§1) Recombinant BACE-1 (extracellular domain, expressed in baculovirus and purified using standard methods) at 0.1 to 1 nM concentrations is incubated with the test compound at various concentrations for 1 hour at room temperature in 100 mM acetate buffer, pH 4.5, containing 0.1% CHAPS. Activity was measured using a final concentration of 3 μM of the fluorescence-quenched substrate Q-C(HSO3)-Ile-Asp-Leu-Ala-Val-Leu-Asp-HN—CH2—CH2-Mca, where Q=2-nitro-5-amino benzoic acid and Mca=7-methoxy-4-coumarinyl acetic acid. Catalytic turnover was monitored in a Spectramax Gemini fluorescence plate reader (Molecular Devices) in black 96-well microplates using excitation/emission wavelength of 325 nm and 400 nm, respectively. Fluorescence increase was followed for 15 min, in 1 minute's intervals. The fluorescence/time slopes were calculated from duplicate wells and from wells without inhibitor and the IC50 values were calculated using a logistic 4-parameter model.

[1] = Test 4: Inhibition of Cellular Release of Amyloid Peptide 1-40; assay type: cell-based, Chinese hamster; conditions: Cricetulus griseus; CHO cells with human APP, 24 hours with compound; read-out: Test 4 Amyloid-β1-40 release IC50
Method: The cells are plated at a density of 8000 cells/well into 96-well microtiter plates and cultivated for 24 hours in DMEM cell culture medium containing 10% FCS. The test compound is added to the cells at various concentrations, and the cells are cultivated for 24 hours in the presence of the test compound. […] The potency of the compound is calculated from the percentage of inhibition of amyloid peptide release as a function of the test compound concentration.

Human BACE-2 = Human BACE-2 (Homo sapiens (Human), UniProt Q9Y5Z0); assay: Test 2: Inhibition of Human BACE-2; assay type: biochemical; conditions: recombinant BACE-2, pH 4.5, 1 hour preincubation
Human BACE-2, sequence (Q9Y5Z0 63-473): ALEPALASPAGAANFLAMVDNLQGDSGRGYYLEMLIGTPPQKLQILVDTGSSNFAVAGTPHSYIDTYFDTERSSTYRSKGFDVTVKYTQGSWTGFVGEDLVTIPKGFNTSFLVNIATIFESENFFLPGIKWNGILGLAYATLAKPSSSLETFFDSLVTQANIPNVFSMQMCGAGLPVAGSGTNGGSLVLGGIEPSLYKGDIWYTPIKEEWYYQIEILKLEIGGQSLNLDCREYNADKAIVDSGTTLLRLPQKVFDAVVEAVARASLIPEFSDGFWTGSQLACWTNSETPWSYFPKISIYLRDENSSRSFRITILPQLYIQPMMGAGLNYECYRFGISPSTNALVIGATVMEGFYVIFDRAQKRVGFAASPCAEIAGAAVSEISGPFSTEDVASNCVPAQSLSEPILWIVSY
Method: Test 2: Inhibition of Human BACE-2
as §1, with “BACE-2” for “BACE-1”

[2] = system: Soluble Abeta40 levels in the rat brain and CSF; assay: Test 5: In Vivo Inhibitory Activity (Abeta lowering in rat brain and CSF); conditions: male Sprague-Dawley rats, oral gavage, 10 micromoles per kilogram, 4 hours prior to sacrifice; n.s.=not statistically significant
Method: Test 5: In Vivo Inhibitory Activity of Example Compounds
Male Sprague-Dawley rats, 220-280 g weight, (Charles River, France) were dosed by oral gavage with vehicle alone (0.1% Tween80, 0.5% methylcellulose in water) or with compound suspended in vehicle at a dose of 10 micromoles compound per kilogram body weight, 4 hours prior to sacrifice. The 4 hour timepoint was selected in order to compare the activity of compounds that have sufficient pharmacokinetic and biodistribution properties to reduce total brain Abeta within approximately three half-lives of the rat brain Abeta40 peptide.
Immediately prior to sacrifice, anaesthetized rat (spontaneous inhalation, 2-5% Isoflurane and air) were fixed in a stereotaxic apparatus on a raised platform, with anesthesia maintained though a nose cone. The angle of the head was tilted downward, perpendicular to the body, and a hypodermic needle lowered through the skin behind the occipital ridge, into the Cisterna magna. Cerebrospinal fluid (CSF) was withdrawn (˜50-100 μL), dispensed into tubes (protein Lo-bind Eppendorf tubes for Abeta40 analysis, normal Eppendorph tubes for compound analysis), frozen on dry ice and stored at −80° C. until analysis. Rats were then immediately decapitated under anesthesia, trunk blood collected for analysis of compound levels and the brain retrieved. One half-forebrain was dissected by removing the cerebellum and olfactory bulbs, frozen in three pieces on a metal plate pre-cooled on frozen CO2 and stored in tubes at −80° C. until analysis for Abeta40. For the other half-brain, olfactory bulbs were discarded and a sagittal slice taken from the medial aspect, weighing ˜200-400 mg, placed in glass HPLC tubes and frozen on dry ice until analysis for compound levels.
Soluble Abeta40 levels in the rat brain and CSF were quantified using a Meso Scale Discovery (MSD) 96-well MULTI-ARRAY human/rodent (4G8) Abeta40 Ultrasensitive Assay (#K110FTE-3, Meso Scale Discovery, Gaithersburg, USA). Forebrain sample homogenates were prepared by sonication in 9 volumes (w/v) of ice cold TBA. Fifty μL of 2% TX-100 in TBS-complete was added to 50 μL aliquots of the homogenate to reach a final concentration of 1% TX-100 in a 1:20 dilution. Samples were incubated on ice for 15 min interrupted with 3 short vortexing steps, then centrifuged (100 000×g, 4° C., 15 min), and 50 μL of supernatant collected. This was further diluted 1:5 with 3% Blocker A solution from the MSD kit to a final dilution of 1:100 and applied to the MSD plate. CSF samples containing blood were excluded. All other CSF samples were diluted with 1% Blocker A solution (from manufacturers kit) to reach a 1:20 CSF dilution. Calibration curves were prepared in 1% Blocker A solution spiked with synthetic Abeta1-40 peptide. Samples and calibration standards were applied in duplicate at a volume of 25 μL per well. Abeta40 concentrations of samples were estimated from the standard curve using SOFTmax PRO4.0.

Human BACE-1, sequence (P56817 46-457): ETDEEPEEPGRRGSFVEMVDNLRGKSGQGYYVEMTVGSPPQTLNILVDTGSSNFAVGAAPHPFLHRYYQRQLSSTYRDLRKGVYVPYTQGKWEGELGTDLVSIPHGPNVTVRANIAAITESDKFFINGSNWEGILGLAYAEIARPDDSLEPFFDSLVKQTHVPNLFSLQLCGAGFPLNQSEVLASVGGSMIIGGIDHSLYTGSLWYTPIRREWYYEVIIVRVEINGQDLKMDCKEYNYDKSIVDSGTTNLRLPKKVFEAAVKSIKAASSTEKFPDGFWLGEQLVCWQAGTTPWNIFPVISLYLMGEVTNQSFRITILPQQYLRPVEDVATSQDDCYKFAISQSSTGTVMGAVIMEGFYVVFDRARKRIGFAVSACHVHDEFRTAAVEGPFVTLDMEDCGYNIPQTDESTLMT

IC50 (Human BACE-1): 19 nM | IC50 [1]: 13 nM | IC50 (Human BACE-2): 7 nM
Compound: C[C@]1(c2nc(NC(=O)c3nn(C(F)F)cc3Cl)ccc2F)N=C(N)OCC1(F)F [Example 30, 4-Chloro-1-difluoromethyl-1H-pyrazole-3-carboxylic acid [6-((R)-2-amino-5,5-difluoro-4-methyl-5,6-dihydro-4H-[1,3]oxazin-4-yl)-5-fluoro-pyridin-2-yl]-amide]
Abeta lowering in rat CSF [2]: −55.2% | Abeta lowering in rat forebrain [2]: −46.6%
